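Five concentrations, 48 hours, 96-well plates. GI50 marks 50% less growth. Definition used: TGI = concentration required for complete inhibition of growth.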
Assays:
Test in all cases: growth of human tumour cells (NCI), 48 h
HCT-116 colon = test system: HCT-116 colon
A498 renal = test system: A498 renal
DMS 273 small cell lung = test system: DMS 273 small cell lung
HCC-2998 colon = test system: HCC-2998 colon
SNB-75 CNS = test system: SNB-75 CNS
786-0 renal = test system: 786-0 renal
SK-OV-3 ovarian = test system: SK-OV-3 ovarian
RXF 393 renal = test system: RXF 393 renal
SF-539 CNS = test system: SF-539 CNS
M19-MEL melanoma = test system: M19-MEL melanoma
MDA-N = test system: MDA-N
MDA-MB-231 breast = test system: MDA-MB-231 breast
PC-3 prostate = test system: PC-3 prostate

NC(N)=NCCCC(NCc1c2ccccc2[n+]([O-])c2ccccc12)C(=O)O (stereo not given)
TGI (HCT-116 colon): > 100 µM
TGI (A498 renal): > 100 µM
TGI (DMS 273 small cell lung): > 100 µM
TGI (HCC-2998 colon): > 100 µM
TGI (SNB-75 CNS): 88.7 µM
TGI (786-0 renal): > 100 µM
TGI (SK-OV-3 ovarian): > 100 µM

C=CCCCCn1c2ccccc2c2c(C)c3c[n+](C)ccc3c(C)c21
TGI (HCT-116 colon): 1.25 µM
TGI (A498 renal): 4.42 µM
TGI (RXF 393 renal): 2.11 µM
TGI (SF-539 CNS): 1.83 µM
TGI (SK-OV-3 ovarian): 3.2 µM
TGI (M19-MEL melanoma): 1.41 µM

NS(=O)(=O)c1ccc(N=Nc2nc3[nH]cnc(=S)c3[nH]2)cc1
TGI (HCT-116 colon): 16.3 µM
TGI (A498 renal): 98.9 µM
TGI (MDA-N): > 38.9 µM
TGI (HCC-2998 colon): 2.83 µM
TGI (RXF 393 renal): > 22.1 µM
TGI (SNB-75 CNS): > 100 µM
TGI (SF-539 CNS): 34.4 µM
TGI (MDA-MB-231 breast): > 25.3 µM
TGI (PC-3 prostate): > 41.4 µM
TGI (786-0 renal): > 100 µM

C[N+]1(CCCC[N+]2(C)CCCCCCC2)CCCCCCC1
TGI (HCT-116 colon): > 100 µM
TGI (A498 renal): > 100 µM
TGI (MDA-N): > 100 µM
TGI (RXF 393 renal): > 100 µM
TGI (MDA-MB-231 breast): > 100 µM
TGI (PC-3 prostate): > 100 µM
TGI (786-0 renal): > 100 µM

Cc1n(-c2ccccc2)c2c([n+]1Cc1ccc([N+](=O)[O-])cc1)C(=O)c1ccccc1C2=O
TGI (HCT-116 colon): 4.36 µM
TGI (A498 renal): 25.5 µM
TGI (MDA-N): 3.16 µM
TGI (DMS 273 small cell lung): 3.87 µM
TGI (HCC-2998 colon): 4.2 µM
TGI (RXF 393 renal): 21.5 µM
TGI (SNB-75 CNS): 13.1 µM
TGI (SF-539 CNS): 3.88 µM
TGI (MDA-MB-231 breast): 3.08 µM
TGI (PC-3 prostate): 7.25 µM
TGI (786-0 renal): 14.7 µM
TGI (SK-OV-3 ovarian): 12.5 µM
TGI (M19-MEL melanoma): 2.93 µM

CCN(CC)CCOCC1CCCN2CCCCC12 (stereo not given)
TGI (HCT-116 colon): > 100 µM
TGI (MDA-N): > 100 µM
TGI (HCC-2998 colon): > 100 µM
TGI (RXF 393 renal): > 100 µM
TGI (SNB-75 CNS): > 100 µM
TGI (SF-539 CNS): > 100 µM
TGI (MDA-MB-231 breast): > 100 µM
TGI (PC-3 prostate): > 100 µM
TGI (786-0 renal): > 100 µM
TGI (SK-OV-3 ovarian): > 100 µM

Cc1cc(=O)[nH]c(NN2C(Cl)C(=O)C2c2c(O)ccc3ccccc23)n1 (stereo not given)
TGI (HCT-116 colon): 48.8 µM
TGI (DMS 273 small cell lung): 33.1 µM
TGI (HCC-2998 colon): 32.6 µM
TGI (RXF 393 renal): 26.6 µM
TGI (SNB-75 CNS): 39.2 µM
TGI (SF-539 CNS): 41.1 µM
TGI (M19-MEL melanoma): > 100 µM

c1ccc(C2=NN[C@H](c3cn(-c4ccccc4)nc3-c3ccccc3)C2)cc1
GI50 (HCC-2998 colon): > 100 µM
TGI (HCC-2998 colon): > 100 µM
GI50 (RXF 393 renal): 2.58 µM
TGI (RXF 393 renal): 9.85 µM
GI50 (SNB-75 CNS): 2.05 µM
TGI (SNB-75 CNS): 4.19 µM
GI50 (SF-539 CNS): 9.11 µM
TGI (SF-539 CNS): > 100 µM
GI50 (MDA-MB-231 breast): 3.86 µM
TGI (MDA-MB-231 breast): > 100 µM
GI50 (PC-3 prostate): 6.22 µM
TGI (PC-3 prostate): > 100 µM
GI50 (SK-OV-3 ovarian): 2.04 µM
TGI (SK-OV-3 ovarian): 4.52 µM

CCCC(=O)[O-].CCCC(=O)[O-].N.N.N.N.[Co+3].[O-][Cl+3]([O-])([O-])[O-]
TGI (HCT-116 colon): > 100 µM
TGI (A498 renal): > 100 µM
TGI (HCC-2998 colon): > 100 µM
TGI (SNB-75 CNS): > 100 µM
TGI (SF-539 CNS): > 100 µM
TGI (786-0 renal): > 100 µM
TGI (SK-OV-3 ovarian): > 100 µM

COc1cc(O)c2c(c1O)C(=O)c1cc(C)ncc1C2=O
TGI (HCT-116 colon): > 50 µM
TGI (A498 renal): > 50 µM
TGI (HCC-2998 colon): > 50 µM
TGI (RXF 393 renal): > 50 µM
TGI (SNB-75 CNS): > 50 µM
TGI (SF-539 CNS): > 50 µM
TGI (786-0 renal): > 50 µM
TGI (SK-OV-3 ovarian): 35.7 µM
TGI (M19-MEL melanoma): 23.8 µM

CCCCCCCSCC1OC(n2cnc3c(N)ncnc32)C(O)C1O (stereo not given)
TGI (HCT-116 colon): 11.4 µM
TGI (A498 renal): 32.4 µM
TGI (DMS 273 small cell lung): 54.2 µM
TGI (HCC-2998 colon): 66.9 µM
TGI (RXF 393 renal): > 100 µM
TGI (SNB-75 CNS): > 100 µM
TGI (SF-539 CNS): > 100 µM

Nc1nc(Sc2ccc([N+](=O)[O-])cn2)c2[nH]cnc2n1
TGI (HCT-116 colon): > 39.7 µM
TGI (A498 renal): 47.8 µM
TGI (MDA-N): 34.6 µM
TGI (HCC-2998 colon): 96.8 µM
TGI (RXF 393 renal): > 30.4 µM
TGI (SNB-75 CNS): 63.9 µM
TGI (SF-539 CNS): > 100 µM
TGI (MDA-MB-231 breast): 35.1 µM
TGI (PC-3 prostate): 47.6 µM
TGI (786-0 renal): > 52.8 µM
TGI (SK-OV-3 ovarian): > 51.1 µM

Cc1n(CC(C)C)c2c([n+]1CC(=O)c1ccc([N+](=O)[O-])cc1)C(=O)c1ccccc1C2=O
TGI (A498 renal): 2.21 µM
TGI (DMS 273 small cell lung): 0.161 µM
TGI (HCC-2998 colon): 1.18 µM
TGI (SNB-75 CNS): 0.641 µM
TGI (SF-539 CNS): < 0.0387 µM
TGI (SK-OV-3 ovarian): 0.869 µM
TGI (M19-MEL melanoma): < 0.0175 µM

Reference: PubChem BioAssay (NCI)
